The results in this text go back to the SangsterLogP compilation.

Compound `CCCCN(CCCC)CC(=O)NC1COc2ccc(Cl)cc21` (stereo not drawn) showed a logP of 4.44.

For the compound `CCCCN(CCCC)CC(=O)NC1COc2ccccc21` (stereo not drawn), the logP was 4.15.

In turn, `Cc1ccc2c(c1)C(NC(=O)CN1CCOCC1)CO2` (stereo not drawn) displayed a logP of 1.38.

`COc1ccc2c(c1)OCC2NC(=O)CN1CCOCC1` (stereo not drawn) returned a logP of 0.92.

In turn, `Cc1ccc2c(c1)C(NC(=O)CN1CCCCC1)CO2` (stereo not drawn) yielded a logP of 2.78.

Compound `CCCCN(CCCC)CC(=O)NC1COc2cc(OC)ccc21` (stereo not drawn) showed a logP of 4.24.

Compound `CCCCN(CCCC)CC(=O)NC1COc2ccc(C)cc21` (stereo not drawn) returned a logP of 4.43. The logP values of the last two compounds are within 0.2 log units of each other.

For `O=C(CN1CCOCC1)NC1COc2ccccc21` (stereo not drawn), the log partition coefficient (logP) came out at 0.81.

As for `Cc1ccc2c(c1)C(NC(=O)CN1CCCC1)CO2` (stereo not drawn), the lipophilicity (logP) was determined as 2.24.

`O=C(CN1CCCC1)NC1COc2ccc(Cl)cc21` (stereo not drawn) gave a log partition coefficient (logP) of 2.47.

`O=C(CN1CCCCC1)NC1COc2ccccc21` (stereo not drawn) showed a lipophilicity (logP) of 2.3.

Consider `COc1ccc2c(c1)OCC2NC(=O)CN1CCCCC1` (stereo not drawn), for which the logP came to 2.41.

`CCN(CC)CC(=O)NC1COc2ccccc21` (stereo not drawn) returned a lipophilicity (logP) of 2.2.

For `O=C(CN1CCCCC1)NC1COc2ccc(Cl)cc21` (stereo not drawn), the logP worked out at 3.01.

`O=C(CN1CCOCC1)NC1COc2ccc(Cl)cc21` (stereo not drawn) showed a lipophilicity (logP) of 1.55.

In turn, `CCN(CC)CC(=O)NC1COc2ccc(C)cc21` (stereo not drawn) yielded a log partition coefficient (logP) of 2.69.

`O=C(CN1CCCC1)NC1COc2ccccc21` (stereo not drawn) returned a logP of 1.76.

Compound `CCN(CC)CC(=O)NC1COc2ccc(Cl)cc21` (stereo not drawn) registered a logP of 2.88.

As usually defined, the logP is the decadic logarithm of the partition coefficient of the neutral form, usually between octanol and water.
